PubChem BioAssay (NCI)
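Where inhibition never reached the appropriate level, the endpoint shown equals the highest concentration tested. Otherwise, values were interpolated linearly from a five-concentration, 48-hour dose response in 96-well plates. Here, GI50 denotes the concentration required for 50% inhibition of growth. TGI: total growth inhibition.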

Experiments:
Assay in all cases: inhibition of tumour cell growth, NCI panel, 48 h
[1] = test system: HOP-92 NSCLC
[2] = test system: NCI-H226 lung
[3] = test system: HS 578T breast
[4] = test system: OVCAR-8 ovarian
[5] = test system: UO-31 renal
[6] = test system: DU-145 prostate
[7] = test system: LOX IMVI melanoma
[8] = test system: HCT-116 colon
[9] = test system: SK-MEL-2 melanoma
[10] = test system: MALME-3M melanoma
[11] = test system: SK-MEL-5 melanoma
[12] = test system: MOLT-4 leukemia
[13] = test system: SF-268 CNS
[14] = test system: UACC-257 melanoma
[15] = test system: U251 CNS
[16] = test system: HOP-62 NSCLC
[17] = test system: EKVX NSCLC
[18] = test system: RXF 393 renal
[19] = test system: A549 NSCLC
[20] = test system: SK-OV-3 ovarian
[21] = test system: OVCAR-3 ovarian
[22] = test system: RPMI-8226 leukemia
[23] = test system: M14 melanoma
[24] = test system: ACHN renal
[25] = test system: UACC-62 melanoma
[26] = test system: A498 renal
[27] = test system: NCI/ADR-RES ovarian
[28] = test system: K-562 leukemia
[29] = test system: SR leukemia
[30] = test system: T-47D breast
[31] = test system: PC-3 prostate
[32] = test system: CCRF-CEM leukemia
[33] = test system: HCT-15 colon
[34] = test system: SW-620 colon
[35] = test system: OVCAR-5 ovarian
[36] = test system: SK-MEL-28 melanoma
[37] = test system: MDA-MB-435
[38] = test system: NCI-H23 lung
[39] = test system: SN12C renal
[40] = test system: SNB-19 CNS
[41] = test system: KM12 colon
[42] = test system: MCF7 breast
[43] = test system: HT29 colon
[44] = test system: BT-549 breast
[45] = test system: IGROV1 ovarian
[46] = test system: SF-295 CNS
[47] = test system: 786-0 renal
[48] = test system: MDA-MB-231 breast
[49] = test system: SNB-75 CNS
[50] = test system: NCI-H522 lung
[51] = test system: NCI-H460 lung
[52] = test system: HCC-2998 colon
[53] = test system: COLO 205 colon
[54] = test system: SF-539 CNS
[55] = test system: TK-10 renal
[56] = test system: CAKI-1 renal
[57] = test system: OVCAR-4 ovarian

SMILES: O=S(=O)(NC1CC2CCC1C2)c1ccc2c(c1)C(=NO)c1cc(S(=O)(=O)NC3CC4CCC3C4)ccc1-2 (stereo unspecified)
- GI50 [1]: 152 nM
- TGI [1]: 426 nM
- GI50 [2]: 22200 nM
- TGI [2]: > 100000 nM
- GI50 [3]: 31600 nM
- TGI [3]: > 100000 nM
- GI50 [4]: 139 nM
- TGI [4]: 2290 nM
- GI50 [5]: 18.6 nM
- TGI [5]: 37.6 nM
- GI50 [6]: 348 nM
- TGI [6]: 8800 nM
- GI50 [7]: 18.2 nM
- TGI [7]: 37.1 nM
- GI50 [8]: 655 nM
- TGI [8]: > 100000 nM
- GI50 [9]: 66700 nM
- TGI [9]: > 100000 nM
- GI50 [10]: 43.8 nM
- TGI [10]: 173 nM
- GI50 [11]: > 100000 nM
- TGI [11]: > 100000 nM
- GI50 [12]: 13300 nM
- TGI [12]: > 100000 nM
- GI50 [13]: 2380 nM
- TGI [13]: 99500 nM
- GI50 [14]: > 100000 nM
- TGI [14]: > 100000 nM
- GI50 [15]: 371 nM
- TGI [15]: 3670 nM
- GI50 [16]: 268 nM
- TGI [16]: 4950 nM
- GI50 [17]: 52.1 nM
- TGI [17]: 201 nM
- GI50 [18]: 292 nM
- TGI [18]: 30200 nM
- GI50 [19]: 1830 nM
- TGI [19]: 22400 nM
- GI50 [20]: 23200 nM
- TGI [20]: > 86700 nM
- GI50 [21]: 598 nM
- TGI [21]: > 100000 nM
- GI50 [22]: 238 nM
- TGI [22]: > 100000 nM
- GI50 [23]: 4420 nM
- TGI [23]: > 100000 nM
- GI50 [24]: 74.2 nM
- TGI [24]: 986 nM
- GI50 [25]: 36000 nM
- TGI [25]: > 100000 nM
- GI50 [26]: > 100000 nM
- TGI [26]: > 100000 nM
- GI50 [27]: 7000 nM
- TGI [27]: > 100000 nM
- GI50 [28]: 444 nM
- TGI [28]: > 100000 nM
- GI50 [29]: 17.9 nM
- TGI [29]: 56.3 nM
- GI50 [30]: 1270 nM
- TGI [30]: 5570 nM
- GI50 [31]: 1860 nM
- TGI [31]: 18300 nM
- GI50 [32]: 25.7 nM
- TGI [32]: 72.6 nM
- GI50 [33]: 592 nM
- TGI [33]: > 100000 nM
- GI50 [34]: 527 nM
- TGI [34]: 3870 nM
- GI50 [35]: 453 nM
- TGI [35]: 40500 nM
- GI50 [36]: 60200 nM
- TGI [36]: > 100000 nM
- GI50 [37]: 1860 nM
- TGI [37]: > 100000 nM
- GI50 [38]: 39.4 nM
- TGI [38]: 182 nM
- GI50 [39]: 883 nM
- TGI [39]: 25800 nM
- GI50 [40]: 28900 nM
- TGI [40]: > 100000 nM
- GI50 [41]: 162 nM
- GI50 [42]: 510 nM
- TGI [42]: > 100000 nM
- GI50 [43]: 220 nM
- TGI [43]: 3010 nM
- GI50 [44]: 1920 nM
- TGI [44]: > 100000 nM
- GI50 [45]: 26.2 nM
- TGI [45]: 132 nM
- GI50 [46]: 2310 nM
- TGI [46]: 8910 nM
- GI50 [47]: 179 nM
- TGI [47]: 326 nM
- GI50 [48]: 106 nM
- TGI [48]: 3130 nM
- TGI [49]: > 100000 nM
- GI50 [50]: 160 nM
- TGI [50]: 1020 nM
- GI50 [51]: 437 nM
- TGI [51]: 14200 nM
- GI50 [52]: 3750 nM
- TGI [52]: > 100000 nM
- GI50 [53]: 23300 nM
- TGI [53]: > 100000 nM
- GI50 [54]: 182 nM
- TGI [54]: 396 nM
- GI50 [55]: 3100 nM
- GI50 [56]: 158 nM
- TGI [56]: 344 nM
- GI50 [57]: 677 nM
- TGI [57]: 3370 nM
